# Values quoted from earlier work as cited in patent publication EP2085120A1, “The use of substances for the treatment of central or peripheral insulin receptor impairment and insulin resistance” (Merz Pharma GmbH & Co. KGaA, priority 2008, dated 2009).
# Tested on: cultured hippocampal and cortical neurons
# Details: cultured hippocampal and cortical neurons pretreated with ADDLs or ADDL/glutamate; addition of an NMDA receptor antagonist
structure (smiles),measurement,value
CC12CC3CC(C)(C1)CC(N)(C3)C2 [memantine],ADDL and glutamate-induced decreased insulin sensitivity,reversible
